Measurements as given in US11541099B2, “Flounder surimi having antioxidant and antihypertensive effects and method of preparing the same” (Jeju National University Industry-Academic Cooperation …, priority 2017, dated 2023).
Converted amounts (≈) assume the structure as drawn. Residues, ends and D or L forms follow the SMILES beside them. No end group written: not given here.

Key:
[1] = biological target: T1, angiotensin I converting enzyme (ACE) (Oryctolagus cuniculus, UniProt P12822); experiment: ACE inhibition activity (modified Cushman and Cheung's method); type: biochemical, rabbit; settings: read-out: concentration inhibiting 50% of ACE (IC50) (converted)
T1 construct: The crude enzyme solution used herein was the supernatant obtained by centrifuging; tissue Sigma-Aldrich Co; host or cells: rabbit lung (acetone powder, crude extract supernatant)
T1 sequence (P12822 34-1310): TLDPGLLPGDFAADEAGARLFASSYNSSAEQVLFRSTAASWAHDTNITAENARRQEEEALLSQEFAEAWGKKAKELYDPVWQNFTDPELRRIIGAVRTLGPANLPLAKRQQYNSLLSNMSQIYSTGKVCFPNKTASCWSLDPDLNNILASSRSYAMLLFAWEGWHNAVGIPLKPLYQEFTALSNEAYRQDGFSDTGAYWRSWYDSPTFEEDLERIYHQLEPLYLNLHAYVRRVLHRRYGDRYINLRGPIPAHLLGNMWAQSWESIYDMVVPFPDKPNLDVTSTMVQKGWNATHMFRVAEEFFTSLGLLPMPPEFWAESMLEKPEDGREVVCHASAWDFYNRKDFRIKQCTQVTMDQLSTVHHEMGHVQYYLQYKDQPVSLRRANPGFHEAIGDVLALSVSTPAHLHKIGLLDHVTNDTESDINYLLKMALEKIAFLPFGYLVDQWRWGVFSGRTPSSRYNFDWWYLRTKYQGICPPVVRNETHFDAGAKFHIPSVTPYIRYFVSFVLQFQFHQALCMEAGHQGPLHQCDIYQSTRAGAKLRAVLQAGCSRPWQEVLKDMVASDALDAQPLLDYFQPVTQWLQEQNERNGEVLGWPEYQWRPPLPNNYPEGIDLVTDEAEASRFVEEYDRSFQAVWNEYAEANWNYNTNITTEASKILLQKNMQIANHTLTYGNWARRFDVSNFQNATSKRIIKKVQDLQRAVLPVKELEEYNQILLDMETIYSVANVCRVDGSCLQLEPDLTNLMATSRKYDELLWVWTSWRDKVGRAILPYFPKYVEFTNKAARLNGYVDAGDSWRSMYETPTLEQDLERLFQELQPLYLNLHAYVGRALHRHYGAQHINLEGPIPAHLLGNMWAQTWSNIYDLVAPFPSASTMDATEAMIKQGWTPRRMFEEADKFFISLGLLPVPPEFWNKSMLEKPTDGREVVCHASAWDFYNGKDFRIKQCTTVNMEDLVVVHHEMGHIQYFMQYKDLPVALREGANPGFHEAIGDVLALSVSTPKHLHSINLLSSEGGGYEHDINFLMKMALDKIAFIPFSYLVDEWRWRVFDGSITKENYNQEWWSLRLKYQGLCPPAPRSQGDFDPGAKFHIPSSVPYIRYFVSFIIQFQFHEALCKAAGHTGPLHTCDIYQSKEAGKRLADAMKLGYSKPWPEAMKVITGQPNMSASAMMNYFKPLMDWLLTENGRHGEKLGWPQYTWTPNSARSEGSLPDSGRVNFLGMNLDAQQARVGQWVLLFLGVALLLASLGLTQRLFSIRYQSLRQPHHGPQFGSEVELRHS
Description: ACE inhibition activity was measured by a modified version of Cushman and Cheung's method. The crude enzyme solution used herein was the supernatant obtained by centrifuging (4° C., 4,000 rpm, 40 min) after extracting a rabbit lung acetone powder (Sigma-Aldrich Co.) at a concentration of 0.2 g/10 mL (w/v) and at 4° C. for 24 hours. The substrate was prepared by dissolving hippurylhistidyl-leucine ([…], Sigma-Aldrich Co.) at a concentration of 5 mg/mL (w/v) in a 0.1 M sodium borate buffer (pH 8.3) containing 0.3 M NaCl.
ACE inhibition activity was determined as follows. 50 μL of an ACE enzyme solution was added to 50 μL of a sample extract, reaction was proceeded at 37° C. for 5 minutes, 50 μL of a substrate was added thereto and the reaction was proceeded at 37° C. for 1 hour. Then, 150 μL of 1N HCl was added to stop the reaction, 750 μL of ethyl acetate was added thereto, and the mixture was stirred for 1 minute and centrifuged (3,500 rpm, 10 min) to obtain 500 μL of the supernatant. The supernatant was completely dried at 105° C. for 4 hours, 2 mL of ethyl acetate was added thereto, and the absorbance was measured at 228 nm. A control group was obtained by adding 50 μL of distilled water, instead of the sample extract.

[2] = Alkyl radical scavenging activity by ESR; settings: peptides isolated from Fraction 2
Description: In order to identify the radical scavenging ability using ESR (electron spin resonance spectrometer, JES-FA ESR, JEOL, Japan), ESR equipment owned by the Center for University-Wide Research Facilities, Jeju University was used and was in accordance with a modified version of the method by Hiramoto (1993). 20 μL of a sample was mixed with 20 μL of distilled water, 20 μL of 40 mM AAPH and 20 μL of 40 mM POBN were added to the resulting mixture, the reaction was proceeded at 37° C. for 30 minutes and the reaction solution was transferred to a capillary tube. The conditions used for analysis were as follows: central field: 3475 G, modulation width: 0.2 mT, 22 amplitude: 500 mT, scan width: 10 mT, set microwave power: 8 mW.

Molecule	IC50 [1] [µM]	IC50 value Alkyl radical scavenging activity [2] [µg/mL]
CC[C@H](C)[C@H](N)C(=O)N[C@H](C(=O)N[C@@H](CC(=O)O)C(=O)N[C@@H](CCCNC(=N)N)C(=O)O)C(C)C [IVDR, Ile-Val-Asp-Arg] (H-IVDR-OH; N-terminus and C-terminus assumed)	63.8	68 (≈ 136 µM)
NCCCC[C@H](NC(=O)[C@H](Cc1ccc(O)cc1)NC(=O)[C@@H](N)Cc1c[nH]c2ccccc12)C(=O)O [WYK, Trp-Tyr-Lys] (H-Trp-Tyr-Lys-OH; N-terminus and C-terminus assumed)	32.3	40 (≈ 80.7 µM)
VASVI [VASVI, Val-Ala-Ser-Val-Ile]	117	77
